Results from BigSolDB 2.1.

O=C(O)c1cccnc1Cl
solubility (mole fraction)
Conditions	273.15 K	278.15 K	283.15 K	288.15 K	293.15 K	298.15 K	303.15 K	308.15 K	313.15 K
in 1,4-dioxane	–	–	–	0.0088	0.0103	0.012	0.0136	0.0155	0.0176
in DMF	0.124	0.149	0.175	0.2	0.228	0.26	0.291	0.327	0.367
in NMP	0.206	0.235	0.265	0.295	0.328	0.36	0.397	0.437	0.478
in acetone	0.00893	0.0103	0.0118	0.0133	0.0149	0.0166	0.0184	0.0205	0.0226
in acetonitrile	0.00105	0.00137	0.00174	0.00214	0.00263	0.00324	0.00399	–	–
in ethanol	0.00286	0.00363	0.00461	0.00563	0.00676	0.00804	0.00953	0.0112	0.0129
in ethyl acetate	0.0138	0.0163	0.0189	0.0218	0.0246	0.0276	0.0308	0.0344	0.0382
in isopropanol	0.00368	0.00464	0.00574	0.00697	0.0083	0.00972	0.0113	0.013	0.0147
in methanol	0.00227	0.00283	0.00347	0.00422	0.00505	0.00598	0.00696	0.00806	0.00927
in n-propanol	0.00446	0.00546	0.00667	0.00792	0.00933	0.011	0.0125	0.0144	0.0162
in water	9.1e-05	0.000104	0.00012	0.000136	0.000153	0.000171	0.000191	0.000216	0.000242
